The results in this text go back to paper PMC5727211, “Development of Erasin: a chromone-based STAT3 inhibitor which induces apoptosis in Erlotinib-resistant lung cancer cells” (Scientific Reports, 2017).

The subject of test [1] is MDA-MB-453 cells. Kind of test: Apoptosis assay (Annexin V/7-AAD flow cytometry), MDA-MB-453 cells. It is filed as cell-based, human. Conditions: 24 h. The protocol:
(§1) MDA-MB-453 cells (3 × 10^5 cells per well), MDA-MB-231 cells (2 × 10^5 cells per well), parental HCC-827 or Erlotinib-resistant HCC-827 cells (both 2.5 × 10^5 cells per well) were seeded in 24-well tissue culture plates (Corning #3524) and treated with test compound or DMSO (final DMSO concentration: 0.2%) for 24 h. Afterwards, the cell culture supernatant from each well was collected. Cells were washed twice with warm PBS and incubated with Accutase (BD Bioscience #561527) at 37 °C for 10 min. The supernatants were then returned to each well to neutralize the Accutase solution and the cells were centrifuged at 3000 rpm, at 4 °C for 5 min. The cell pellets were washed twice with cold PBS and centrifuged again. PE Annexin V Apoptosis Detection Kit I (BD Bioscience, 559763) was used for cell staining. Cells were resuspended in 1 x binding buffer and incubated with PE Annexin V and 7-AAD at 4 °C for 30 min. Apoptosis was measured using an LSR II flow cytometer (BD Bioscience). Experiments were carried out in at least triplicate.
A general note: A flow cytometer gives signals particle by particle.

For test [2], the target named is STAT3 SH2 domain (Homo sapiens, UniProt P40763). As to the kind of experiment: FP-based competitive binding assay, STAT3 SH2 domain. The protocol: (§2) The STAT family display a high degree of homology. […] Vilsmeyer-Haack formylation of 2-hydroxy acetophenones led to 3-formyl chromones, which were subsequently converted to the acyl hydrazones by reaction with hydrazides (Fig. 1). The target molecules were tested for their abilities to inhibit binding of fluorophore-labeled peptides to the SH2 domains of STAT1[24], STAT3[25], and STAT5b[26] in assays based on fluorescence polarization (FP). The more distantly related SH2 domain of the tyrosine kinase Lck served as additional specificity control[27],[28].
Chain of STAT3 SH2 domain (P40763 whole entry, the tested form may be a part): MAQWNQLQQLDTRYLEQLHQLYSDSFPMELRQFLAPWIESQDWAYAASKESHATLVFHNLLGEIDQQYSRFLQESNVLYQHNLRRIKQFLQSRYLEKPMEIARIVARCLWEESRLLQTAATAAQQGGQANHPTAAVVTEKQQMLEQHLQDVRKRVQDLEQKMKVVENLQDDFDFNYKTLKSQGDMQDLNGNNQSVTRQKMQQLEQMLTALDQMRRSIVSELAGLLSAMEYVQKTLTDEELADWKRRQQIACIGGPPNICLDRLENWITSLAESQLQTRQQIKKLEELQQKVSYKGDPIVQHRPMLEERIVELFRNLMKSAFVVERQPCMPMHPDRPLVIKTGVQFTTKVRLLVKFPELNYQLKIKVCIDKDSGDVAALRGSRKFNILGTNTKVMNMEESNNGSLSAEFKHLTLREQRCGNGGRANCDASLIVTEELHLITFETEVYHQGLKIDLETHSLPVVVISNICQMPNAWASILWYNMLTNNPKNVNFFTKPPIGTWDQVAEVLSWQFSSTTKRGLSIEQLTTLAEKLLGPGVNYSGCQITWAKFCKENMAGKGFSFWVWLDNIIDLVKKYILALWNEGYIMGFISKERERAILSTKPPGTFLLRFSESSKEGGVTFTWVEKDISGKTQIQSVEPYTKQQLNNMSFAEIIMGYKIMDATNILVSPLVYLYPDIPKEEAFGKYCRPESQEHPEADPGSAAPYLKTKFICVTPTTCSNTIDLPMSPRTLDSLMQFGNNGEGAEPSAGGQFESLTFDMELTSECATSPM
Assays were performed essentially as described. In brief, protein was incubated with the test compounds for 1 h at room temperature at the following protein concentrations: STAT1: 400 nM, STAT3: 210 nM, STAT5b: 300 nM, Lck SH2: 35 nM. Subsequently, the corresponding fluorophore-labeled peptide was added: STAT1: (5-carboxyfluorescein)-GpYDKPHVL-OH, derived from the interferon-γ receptor[24]; STAT3: (5-carboxyfluorescein)-GpYLPQTV-NH2, derived from the gp130 subunit of the IL-6 receptor[25]; STAT5b: (5-carboxyfluorescein)-GpYLVLDKW-OH, derived from the erythropoietin receptor[26]; Lck SH2: (5-carboxyfluorescein)-GpYEEIP-OH, derived from the middle-T antigen. After a further hour of incubation, fluorescence polarization was measured in a plate reader (Tecan Infinite F500). Apparent IC50 data shown in Tables 1, 2, and S1 and the inhibition curves shown in Fig. 2a correspond to this time point. The majority of the pipetting work was carried out using a Biomek FXp workstation (Beckman-Coulter). […]

The target of test [3] is T1, STAT5b SH2 domain (Homo sapiens, UniProt P51692).
T1 sequence (P51692 1-787): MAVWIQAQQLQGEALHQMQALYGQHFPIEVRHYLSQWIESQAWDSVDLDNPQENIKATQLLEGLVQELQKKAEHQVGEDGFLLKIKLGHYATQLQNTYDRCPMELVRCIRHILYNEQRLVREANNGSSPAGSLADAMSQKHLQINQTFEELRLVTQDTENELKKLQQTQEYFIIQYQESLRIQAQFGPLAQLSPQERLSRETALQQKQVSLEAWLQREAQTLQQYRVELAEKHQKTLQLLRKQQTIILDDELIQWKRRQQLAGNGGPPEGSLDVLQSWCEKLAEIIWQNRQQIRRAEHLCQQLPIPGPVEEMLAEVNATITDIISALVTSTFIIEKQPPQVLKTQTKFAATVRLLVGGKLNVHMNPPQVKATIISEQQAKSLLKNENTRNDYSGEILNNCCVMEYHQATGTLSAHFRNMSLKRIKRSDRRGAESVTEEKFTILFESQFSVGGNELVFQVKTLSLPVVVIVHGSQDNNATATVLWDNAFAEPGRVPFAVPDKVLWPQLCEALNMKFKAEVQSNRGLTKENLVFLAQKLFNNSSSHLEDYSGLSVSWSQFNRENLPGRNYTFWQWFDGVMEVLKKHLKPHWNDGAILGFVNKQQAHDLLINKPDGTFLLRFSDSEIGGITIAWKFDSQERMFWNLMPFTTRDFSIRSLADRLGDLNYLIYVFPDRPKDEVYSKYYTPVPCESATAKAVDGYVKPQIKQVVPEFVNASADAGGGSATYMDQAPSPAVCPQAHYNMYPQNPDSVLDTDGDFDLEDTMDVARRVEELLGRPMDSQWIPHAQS
Kind of test: FP-based competitive binding assay, STAT5b SH2 domain. Conditions: at 80 µM, mean ± s.d., three experiments. The protocol:
as §2
Assays were performed essentially as described. In brief, protein was incubated with the test compounds for 1 h at room temperature at the following protein concentrations: STAT1: 400 nM, STAT3: 210 nM, STAT5b: 300 nM, Lck SH2: 35 nM. Subsequently, the corresponding fluorophore-labeled peptide was added: STAT1: (5-carboxyfluorescein)-GpYDKPHVL-OH, derived from the interferon-γ receptor[24]; STAT3: (5-carboxyfluorescein)-GpYLPQTV-NH2, derived from the gp130 subunit of the IL-6 receptor[25]; STAT5b: (5-carboxyfluorescein)-GpYLVLDKW-OH, derived from the erythropoietin receptor[26]; Lck SH2: (5-carboxyfluorescein)-GpYEEIP-OH, derived from the middle-T antigen. After a further hour of incubation, fluorescence polarization was measured in a plate reader (Tecan Infinite F500). Apparent IC50 data shown in Tables 1, 2, and S1 and the inhibition curves shown in Fig. 2a correspond to this time point. The majority of the pipetting work was carried out using a Biomek FXp workstation (Beckman-Coulter). Buffer composition: 10 mM Tris pH 8.0, 50 mM NaCl, 1 mM EDTA, 1 mM dithiothreitol (DTT), 0.1% Nonidet P-40, and 2% DMSO.

Test [4] relates to MDA-MB-231 cells. As to the kind of experiment: Apoptosis assay (Annexin V/7-AAD flow cytometry), MDA-MB-231 cells. It is filed as cell-based, human. The conditions noted are these: 24 h. The protocol: as §1
In test [5] the test system is Erlotinib-resistant HCC-827 cells. Kind of test: Apoptosis assay (Annexin V/7-AAD flow cytometry), Erlotinib-resistant HCC-827 cells. Conditions: 24 h. The class given is cell-based, human. The protocol: Afterwards, the cell culture supernatant from each well was collected. […] The supernatants were then returned to each well to neutralize the Accutase solution and the cells were centrifuged at 3000 rpm, at 4 °C for 5 min. The cell pellets were washed twice with cold PBS and centrifuged again. […] Cells were resuspended in 1 x binding buffer and incubated with PE Annexin V and 7-AAD at 4 °C for 30 min. Apoptosis was measured using an LSR II flow cytometer (BD Bioscience). Experiments were carried out in at least triplicate. […]

Read-outs that look alike come from different tables or passages of the source.

For the compound `CC(C)(C)c1ccc2occ(/C=N/NC(=O)c3cccnc3)c(=O)c2c1` [Compound 8], the figures for the “increase in rate of apoptosis relative to DMSO control” value in test [1], in test [4] and in test [5] were “did not show an increase”, “up to three-fold increase” and “equally effective”, respectively. In addition, the IC50 was determined as 9.7 ± 1.8 µM in test [2] (1 h with protein, then 1 h with peptide, mean ± s.d., three experiments, read-out: STAT3 app. IC50) and 2.8 µM in test [2] (after 9 h, read-out: apparent IC50 against wild-type STAT3 after 9 h). The “effect of omission of DTT from assay buffer on inhibitory activity against STAT3” value in test [2] (2 h of incubation, without DTT) is “does not significantly increase the inhibitory activity”. For the same compound, the inhibition at 80 µM in test [3] was determined as 32 ± 2%.

As for `CCC(C)(C)c1ccc2occ(/C=N/NC(=O)c3cccnc3)c(=O)c2c1` [Compound 9], the figures for the “increase in rate of apoptosis relative to DMSO control” value in test [1], in test [4] and in test [5] were “did not significantly increase apoptosis”, “did not significantly increase apoptosis” and “did not increase the apoptotic rate”, respectively. In test [2] (at 80 µM, mean ± s.d., three experiments), this compound gave an inhibition at 80 µM of 45 ± 5%. For the same compound, in test [3], the STAT5b inhibition result is listed as “no inhibition at 80 µM”.

What is called IC50 is the concentration that gives 50% inhibition. The term inhibition denotes how much of the control response was suppressed.
